Measurements as given in patent US6355799B1, “Substituted benzene compounds, process for their preparation, and herbicidal and defoliant compositions containing them” (ISK Americas Incorporated, priority 1997, dated 2002).

Columns and labels:
Type in all cases: in vivo
[1] = test system: field corn (Zea mays L., var. Dekalb 535, CORN); assay: Post-emerge test, crop safety; conditions: phytotoxicity rating 0-100 (0 no damage, 100 complete death), 14 days after application
Method in brief: (§1)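 Rating: 0–100 visual injury, 14 DAA. Application: acetone, 187 l/ha, 15–1000 g ai/ha, flat-fan track sprayer with nozzle 40–45 cm above soil or canopy. Post-emerge runs used 0.25% v/v surfactant on 2–3 leaf plants.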

[2] = test system: upland rice (Oryza sp., var. Tebonnet, RICE); assay: Post-emerge test, crop safety; conditions: phytotoxicity rating 0-100 (0 no damage, 100 complete death), 14 days after application
Method in brief: as §1

[3] = test system: redroot pigweed (Amaranthus retroflexus, AMARE); assay: Pre-emerge test, greenhouse herbicide activity screening; conditions: pre-emerge, rated 14 days after application, 0 = no damage, 100 = complete death
Method in brief: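 Compounds in acetone were track-sprayed at 187 l/ha, 15–1000 g ai/ha, onto sandy loam pots. Pre-emerge seeds were sown one day before spraying, with surface watering afterwards. Post-emerge plants were at the 2–3 leaf stage and sprayed with 0.25% v/v non-ionic surfactant. Injury was rated 0–100 at 14 days.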

[4] = test system: velvetleaf (Abutilon theophrasti, ABUTH); assay: Post-emerge test, greenhouse herbicide activity screening; conditions: phytotoxicity rating 0-100 (0 no damage, 100 complete death), 14 days after application
Method in brief: (§2)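 Sandy loam pots; pre-emerge: sown 1 d pre-spray, surface-watered after, then bottom-watered. Post-emerge: sown 8–21 d before, 2–3 leaf stage, + 0.25% v/v NIS, bottom-watered. Acetone, 187 l/ha track spray, 15–1000 g ai/ha. 0–100 injury score, day 14.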

[5] = test system: ivyleaf morningglory (Ipomoea hederacea, IPOHE); assay: as above; conditions: phytotoxicity rating 0-100 (0 no damage, 100 complete death), 14 days after application
Method in brief: as §2

[6] = test system: lambsquarters (Chenopodium album, CHEAL); assay: as above; conditions: phytotoxicity rating 0-100 (0 no damage, 100 complete death), 14 days after application
Method in brief: as §2

[7] = test system: large crabgrass (Digitaria sanguinalis, DIGSA); assay: as above; conditions: phytotoxicity rating 0-100 (0 no damage, 100 complete death), 14 days after application
Method in brief: as §2

[8] = test system: green foxtail (Setaria viridis, SETVI); assay: as above; conditions: phytotoxicity rating 0-100 (0 no damage, 100 complete death), 14 days after application
Method in brief: as §2

[9] = test system: sicklepod (Cassia obtusifolia, CASOB); assay: as above; conditions: phytotoxicity rating 0-100 (0 no damage, 100 complete death), 14 days after application
Method in brief: as §2

[10] = test system: redroot pigweed (Amaranthus retroflexus, AMARE); assay: as above; conditions: phytotoxicity rating 0-100 (0 no damage, 100 complete death), 14 days after application
Method in brief: as §2

[11] = test system: common ragweed (Ambrosia artemisizfolia L., AMBEL); assay: as above; conditions: phytotoxicity rating 0-100 (0 no damage, 100 complete death), 14 days after application
Method in brief: as §2

[12] = test system: barnyardgrass (Echinochloa crus-galli, ECHCG); assay: as above; conditions: phytotoxicity rating 0-100 (0 no damage, 100 complete death), 14 days after application
Method in brief: as §2

[13] = test system: velvetleaf (Abutilon theophrasti, ABUTH); assay: Pre-emerge test, greenhouse herbicide activity screening; conditions: pre-emerge, rated 14 days after application, 0 = no damage, 100 = complete death
Method in brief: (§3)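 Compounds in acetone were track-sprayed at 15–1000 g ai/ha: pre-emergence onto soil sown the previous day, then top-watered to incorporate and later bottom-watered; post-emergence onto 2–3 leaf plants with 0.25% v/v surfactant, bottom-watered only. Ratings on a 0–100 phytotoxicity scale were taken at day 14.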

[14] = test system: ivyleaf morningglory (Ipomoea hederacea, IPOHE); assay: as above; conditions: pre-emerge, rated 14 days after application, 0 = no damage, 100 = complete death
Method in brief: as §3

[15] = test system: lambsquarters (Chenopodium album, CHEAL); assay: as above; conditions: pre-emerge, rated 14 days after application, 0 = no damage, 100 = complete death
Method in brief: as §3

[16] = test system: large crabgrass (Digitaria sanguinalis, DIGSA); assay: as above; conditions: pre-emerge, rated 14 days after application, 0 = no damage, 100 = complete death
Method in brief: as §3

[17] = test system: green foxtail (Setaria viridis, SETVI); assay: as above; conditions: pre-emerge, rated 14 days after application, 0 = no damage, 100 = complete death
Method in brief: as §3

[18] = test system: sicklepod (Cassia obtusifolia, CASOB); assay: as above; conditions: pre-emerge, rated 14 days after application, 0 = no damage, 100 = complete death
Method in brief: as §3

[19] = test system: johnsongrass (Sorghum halepense, SORHA); assay: as above; conditions: pre-emerge, rated 14 days after application, 0 = no damage, 100 = complete death
Method in brief: as §3

[20] = test system: common ragweed (Ambrosia artemisizfolia L., AMBEL); assay: as above; conditions: pre-emerge, rated 14 days after application, 0 = no damage, 100 = complete death
Method in brief: as §3

[21] = test system: barnyardgrass (Echinochloa crus-galli, ECHCG); assay: as above; conditions: pre-emerge, rated 14 days after application, 0 = no damage, 100 = complete death
Method in brief: as §3

[22] = test system: field corn (Zea mays L., var. Dekalb 535, CORN); assay: Pre-emerge test, crop safety; conditions: pre-emerge, rated 14 days after application, 0 = no damage, 100 = complete death
Method in brief: as §1

[23] = test system: upland rice (Oryza sp., var. Tebonnet, RICE); assay: Pre-emerge test, crop safety; conditions: pre-emerge, rated 14 days after application, 0 = no damage, 100 = complete death
Method in brief: as §1

CCOC(=O)C(C)Nc1cc(Cl)cc(F)c1-n1c(=O)cc(C(F)(F)F)n(C)c1=O (stereo not shown) [Compound 1-54]
80: Pre-emerge Herbicidal Activity DIGSA (phytotoxicity rating, scale 0-100) ([16]; 63 g ai/ha) | Pre-emerge Herbicidal Activity CASOB (phytotoxicity rating, scale 0-100) ([18]; 250 g ai/ha) | Pre-emerge Herbicidal Activity SORHA (phytotoxicity rating, scale 0-100) ([19]; 63 g ai/ha)
99: Pre-emerge crop damage CORN (phytotoxicity rating, scale 0-100) ([22]; 250 g ai/ha)
30: Pre-emerge Herbicidal Activity CASOB (phytotoxicity rating, scale 0-100) ([18]; 63 g ai/ha)
90: Post-emerge Herbicidal Activity CASOB ([9]; 63 g ai/ha) | Pre-emerge Herbicidal Activity SETVI (phytotoxicity rating, scale 0-100) ([17]; 63 g ai/ha)
100: Pre-emerge Herbicidal Activity AMARE (phytotoxicity rating, scale 0-100) ([3]; 63 g ai/ha) | Pre-emerge Herbicidal Activity AMARE (phytotoxicity rating, scale 0-100) ([3]; 250 g ai/ha) | Post-emerge Herbicidal Activity ABUTH ([4]; 63 g ai/ha) | Post-emerge Herbicidal Activity ABUTH ([4]; 250 g ai/ha) | Post-emerge Herbicidal Activity IPOHE ([5]; 63 g ai/ha) | Post-emerge Herbicidal Activity IPOHE ([5]; 250 g ai/ha) | Post-emerge Herbicidal Activity CHEAL ([6]; 63 g ai/ha) | Post-emerge Herbicidal Activity CHEAL ([6]; 250 g ai/ha) | Post-emerge Herbicidal Activity CASOB ([9]; 250 g ai/ha) | Post-emerge Herbicidal Activity AMARE ([10]; 63 g ai/ha) | Post-emerge Herbicidal Activity AMARE ([10]; 250 g ai/ha) | Post-emerge Herbicidal Activity AMBEL ([11]; 63 g ai/ha) | Post-emerge Herbicidal Activity AMBEL ([11]; 250 g ai/ha) | Pre-emerge Herbicidal Activity ABUTH (phytotoxicity rating, scale 0-100) ([13]; 63 g ai/ha) | Pre-emerge Herbicidal Activity ABUTH (phytotoxicity rating, scale 0-100) ([13]; 250 g ai/ha) | Pre-emerge Herbicidal Activity IPOHE (phytotoxicity rating, scale 0-100) ([14]; 63 g ai/ha) | Pre-emerge Herbicidal Activity IPOHE (phytotoxicity rating, scale 0-100) ([14]; 250 g ai/ha) | Pre-emerge Herbicidal Activity CHEAL (phytotoxicity rating, scale 0-100) ([15]; 63 g ai/ha) | Pre-emerge Herbicidal Activity CHEAL (phytotoxicity rating, scale 0-100) ([15]; 250 g ai/ha) | Pre-emerge Herbicidal Activity DIGSA (phytotoxicity rating, scale 0-100) ([16]; 250 g ai/ha) | Pre-emerge Herbicidal Activity SETVI (phytotoxicity rating, scale 0-100) ([17]; 250 g ai/ha) | Pre-emerge Herbicidal Activity SORHA (phytotoxicity rating, scale 0-100) ([19]; 250 g ai/ha) | Pre-emerge Herbicidal Activity AMBEL (phytotoxicity rating, scale 0-100) ([20]; 63 g ai/ha) | Pre-emerge Herbicidal Activity AMBEL (phytotoxicity rating, scale 0-100) ([20]; 250 g ai/ha) | Pre-emerge Herbicidal Activity ECHCG (phytotoxicity rating, scale 0-100) ([21]; 250 g ai/ha)
45: Post-emerge Herbicidal Activity RICE (crop damage) ([2]; 250 g ai/ha) | Pre-emerge Herbicidal Activity ECHCG (phytotoxicity rating, scale 0-100) ([21]; 63 g ai/ha)
70: Post-emerge Herbicidal Activity CORN (crop damage) ([1]; 250 g ai/ha) | Post-emerge Herbicidal Activity DIGSA ([7]; 250 g ai/ha)
20: Post-emerge Herbicidal Activity ECHCG ([12]; 63 g ai/ha)
95: Pre-emerge crop damage CORN (phytotoxicity rating, scale 0-100) ([22]; 63 g ai/ha) | Pre-emerge crop damage RICE (phytotoxicity rating, scale 0-100) ([23]; 250 g ai/ha)
60: Post-emerge Herbicidal Activity SETVI ([8]; 250 g ai/ha) | Pre-emerge crop damage RICE (phytotoxicity rating, scale 0-100) ([23]; 63 g ai/ha)
40: Post-emerge Herbicidal Activity RICE (crop damage) ([2]; 63 g ai/ha) | Post-emerge Herbicidal Activity DIGSA ([7]; 63 g ai/ha) | Post-emerge Herbicidal Activity SETVI ([8]; 63 g ai/ha)
75: Post-emerge Herbicidal Activity ECHCG ([12]; 250 g ai/ha)
50: Post-emerge Herbicidal Activity CORN (crop damage) ([1]; 63 g ai/ha)
